For assay [1], the target named is IL-17A(FLAG-Tagged): IL-17RA(His-Tagged) (Homo sapiens, UniProt Q16552, K93Q). The assay can be described thus: IL-17A(FLAG-Tagged): IL-17RA(His-Tagged) Binding Disruption Eu-HTRF Assay. Conditions: IL-17A/IL-17RA binding disruption, simple average if tested more than once. The method, boiled down: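 IC50 comes from a one-site competition fit of the HTRF 665/620 nm ratio. Compound dilutions (2-fold, 22 points) were held 1 h rt with FLAG-tagged IL-17A dimer, then His-tagged IL-17RA plus Eu-cryptate anti-FLAG and D2 anti-His antibodies were added for 2 h rt.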
(In TR-FRET formats the signal depends on donor and acceptor labels being close together.)

Assay [2] concerns IL-17A-induced G-CSF production in human normal keratinocyte (NHK). The assay is described as follows: NHK Assay: IL-17A-induced G-CSF production in human normal keratinocytes. It is filed as cell-based. Conditions: Homo sapiens, Keratinocyte, 24 h, adult normal human keratinocytes, IL-17A 5 ng/mL, simple average if tested more than once. In a few lines:
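Titrated compound plus recombinant human IL-17A (pre-incubated 1 h, rt) were applied to adult human keratinocytes at 5 ng/mL cytokine, 0.2% DMSO. Cultures ran 24 h at 37° C, and supernatant G-CSF was measured by HTRF to derive IC50.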

Molecules are shown by their SMILES.

UniProt Q16552, sequence (Q16552 with tags, fused parts or gaps K93Q): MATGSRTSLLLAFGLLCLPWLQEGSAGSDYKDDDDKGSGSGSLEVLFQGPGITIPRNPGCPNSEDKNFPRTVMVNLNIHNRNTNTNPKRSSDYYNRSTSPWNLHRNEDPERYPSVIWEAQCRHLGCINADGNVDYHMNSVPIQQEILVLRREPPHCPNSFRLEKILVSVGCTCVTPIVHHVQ

In the case of `O=C(CCC(F)(F)F)N[C@@H](c1cnn2cc([C@@H](NC(=O)c3cccc(C4CC4)c3)C3CCC(F)(F)CC3)nc2c1)C1CC1` [Example 166, 3-Cyclopropyl-N—((S)-(7-((R)-cyclopropyl(4,4,4-trifluorobutanamido)methyl)imidazo[1,2-b]pyridazin-2-yl)(4,4-difluorocyclohexyl)methyl)benzamide], the IC50 (in general, the concentration that gives 50% inhibition) was 57 nM in assay [1] and 130 nM in assay [2].

For `O=C(CCC(F)(F)F)N[C@@H](c1cnn2cc([C@@H](NC(=O)c3cccc(OC(F)F)c3)C3CCC(F)(F)CC3)nc2c1)C1CC1` [Example 167, N—((S)-(7-((R)-Cyclopropyl(4,4,4-trifluorobutanamido)methyl)imidazo[1,2-b]pyridazin-2-yl)(4,4-difluorocyclohexyl)methyl)-3-(difluoromethoxy)benzamide], the figures for the IC50 in assay [1] and in assay [2] were 37 nM and 160 nM, respectively.

Consider `O=C(CCC(F)(F)F)N[C@@H](c1cnn2cc([C@@H](NC(=O)c3cccc(OCC(F)F)c3)C3CCC(F)(F)CC3)nc2c1)C1CC1` [Example 168, N—((S)-(7-((R)-Cyclopropyl(4,4,4-trifluorobutanamido)methyl)imidazo[1,2-b]pyridazin-2-yl)(4,4-difluorocyclohexyl)methyl)-3-(2,2-difluoroethoxy)benzamide], for which the results for the concentration for half-maximal inhibition (IC50) in assay [1] and in assay [2] were 38 nM and 190 nM, respectively.

With `O=C(CCC(F)(F)F)N[C@@H](c1cnn2cc([C@@H](NC(=O)c3cc(OC(F)F)ccc3F)C3CCC(F)(F)CC3)nc2c1)C1CC1` [Example 169, N—((S)-(7-((R)-Cyclopropyl(4,4,4-trifluorobutanamido)methyl)imidazo[1,2-b]pyridazin-2-yl)(4,4-difluorocyclohexyl)methyl)-5-(difluoromethoxy)-2-fluorobenzamide], the figures for the IC50 in assay [1] and in assay [2] were 37 nM and 200 nM, respectively.

On to `O=C(CCC(F)(F)F)N[C@@H](c1cnn2cc([C@@H](NC(=O)c3cccc(C(F)F)c3)C3CCC(F)(F)CC3)nc2c1)C1CC1` [Example 170, N—((S)-(7-((R)-Cyclopropyl(4,4,4-trifluorobutanamido)methyl)imidazo[1,2-b]pyridazin-2-yl)(4,4-difluorocyclohexyl)methyl)-3-(difluoromethyl)benzamide], for which the 50% inhibitory concentration (IC50) in assay [1] was determined as 41 nM; in assay [2], 220 nM.

In the case of `O=C(CCC(F)(F)F)N[C@@H](c1cnn2cc([C@@H](NC(=O)c3ccnc(OCC(F)(F)F)c3)C3CCC(F)(F)CC3)nc2c1)C1CC1` [Example 171, N—((S)-(7-((R)-Cyclopropyl(4,4,4-trifluorobutanamido)methyl)imidazo[1,2-b]pyridazin-2-yl)(4,4-difluorocyclohexyl)methyl)-2-(2,2,2-trifluoroethoxy)isonicotinamide], the IC50 came out at 48 nM in assay [1] and 320 nM in assay [2].

With `O=C(CCC(F)(F)F)N[C@@H](c1cnn2cc([C@@H](NC(=O)c3ccnc(OC4CC4)c3)C3CCC(F)(F)CC3)nc2c1)C1CC1` [Example 172, 2-Cyclopropoxy-N—((S)-(7-((R)-cyclopropyl(4,4,4-trifluorobutanamido)methyl)imidazo[1,2-b]pyridazin-2-yl)(4,4-difluorocyclohexyl)methyl)isonicotinamide], the IC50 in assay [1] amounted to 44 nM; in assay [2], 320 nM.

With `O=C(CCC(F)(F)F)N[C@@H](c1cnn2cc([C@@H](NC(=O)c3cccc(F)c3)C3CCC(F)(F)CC3)nc2c1)C1CC1` [Example 173, N—((S)-(7-((R)-Cyclopropyl(4,4,4-trifluorobutanamido)methyl)imidazo[1,2-b]pyridazin-2-yl)(4,4-difluorocyclohexyl)methyl)-3-fluorobenzamide], the figures for the half-inhibitory concentration (IC50) in assay [1] and in assay [2] were 60 nM and 340 nM, respectively.

As for `O=C(CCC(F)(F)F)N[C@@H](c1cnn2cc([C@@H](NC(=O)c3cccc(OCC(F)(F)F)c3)C3CCC(F)(F)CC3)nc2c1)C1CC1` [Example 174, N—((S)-(7-((R)-Cyclopropyl(4,4,4-trifluorobutanamido)methyl)imidazo[1,2-b]pyridazin-2-yl)(4,4-difluorocyclohexyl)methyl)-3-(2,2,2-trifluoroethoxy)benzamide], the concentration for half-maximal inhibition (IC50) in assay [1] is 80 nM; in assay [2] it was 390 nM.
